In ChEMBL document CHEMBL1201862, “PubChem BioAssay data set” (2004):
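These data come from cells grown in 96-well plates and exposed to compound for 48 hours at five concentrations. At the GI50, growth is halved.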 Calls of active or inactive are those of the source. Rule as the data show it: active = GI50 up to about 1.1 µM and inactive = higher.

Tests used:
Assay in all cases: DTP human tumour cell line panel, 48 h
786-0 = tested on: 786-0
A498 = tested on: A498
CCRF-CEM = tested on: CCRF-CEM
HCT-15 = tested on: HCT-15
Hs-578T = tested on: Hs-578T
M14 = tested on: M14
MDA-MB-231 = tested on: MDA-MB-231
MDA-N = tested on: MDA-N
Malme-3M = tested on: Malme-3M
NCI-H226 = tested on: NCI-H226
SK-MEL-5 = tested on: SK-MEL-5
SN12C = tested on: SN12C
SNB-19 = tested on: SNB-19
SR = tested on: SR
SW-620 = tested on: SW-620
UACC-257 = tested on: UACC-257
UACC-62 = tested on: UACC-62
OVCAR-4 = tested on: OVCAR-4

Structure (SMILES) | GI50 (786-0) | GI50 (A498) | GI50 (CCRF-CEM) | GI50 (HCT-15) [µM] | GI50 (Hs-578T) | GI50 (M14) | GI50 (MDA-MB-231) | GI50 (MDA-N) | GI50 (Malme-3M) | GI50 (NCI-H226) | GI50 (SK-MEL-5) | GI50 (SN12C) | GI50 (SNB-19) | GI50 (SR) | GI50 (SW-620) | GI50 (UACC-257) | GI50 (UACC-62) | GI50 (OVCAR-4)
CCOC(=O)C1CCC(=O)N1C(=O)c1ccc(Cl)cc1 (stereo not drawn) | > 100 µM (inactive) | > 100 µM (inactive) | > 100 µM (inactive) | > 100 | > 100 µM (inactive) | > 100 µM (inactive) | > 100 µM (inactive) | > 100 µM (inactive) | > 100 µM (inactive) | > 100 µM (inactive) | > 100 µM (inactive) | > 100 µM (inactive) | > 100 µM (inactive) | > 100 µM (inactive) | > 100 µM (inactive) | > 100 µM (inactive) | 22.3 µM (inactive) | –
c1ccc(C2SCC3=Nc4ccccc4CN32)cc1 (stereo not drawn) | 21.3 µM (inactive) | > 100 µM (inactive) | 34.2 µM (inactive) | 51.4 | 73.8 µM (inactive) | 31 µM (inactive) | > 100 µM (inactive) | 87.7 µM (inactive) | – | – | 14.4 µM (inactive) | > 100 µM (inactive) | 13.4 µM (inactive) | 31.4 µM (inactive) | 87.5 µM (inactive) | 94.6 µM (inactive) | 60.1 µM (inactive) | 78.2 µM (inactive)
CC(C)=CC1C(C(=O)Oc2ccccc2C(C)C)C1(C)C (stereo not drawn) | 19.9 µM (inactive) | 19.7 µM (inactive) | 22.8 µM (inactive) | 21 | 39.9 µM (inactive) | 31.6 µM (inactive) | 22.9 µM (inactive) | 26.4 µM (inactive) | 16.3 µM (inactive) | – | 18.2 µM (inactive) | 20.5 µM (inactive) | 34.3 µM (inactive) | 20.9 µM (inactive) | 24.3 µM (inactive) | 19.5 µM (inactive) | 36.7 µM (inactive) | 52 µM (inactive)
COc1ccc2[nH]c(Cl)c(/C=C3/C(=O)N(c4ccccc4)c4ccccc43)c2c1 | 6.37 µM (inactive) | 8.17 µM (inactive) | 2.96 µM (inactive) | 2.58 | 4.74 µM (inactive) | 3.66 µM (inactive) | 6.35 µM (inactive) | 1.6 µM (inactive) | 6.76 µM (inactive) | – | 2.28 µM (inactive) | 4.78 µM (inactive) | 9.46 µM (inactive) | 2.65 µM (inactive) | 3.78 µM (inactive) | 7.13 µM (inactive) | 5.21 µM (inactive) | –
CC(NCc1c(O)ccc2c(-c3ccccc3)cc(=O)oc12)C(=O)O (stereo not drawn) | > 100 µM (inactive) | – | > 100 µM (inactive) | > 100 | > 100 µM (inactive) | > 100 µM (inactive) | > 100 µM (inactive) | > 100 µM (inactive) | > 100 µM (inactive) | > 100 µM (inactive) | > 100 µM (inactive) | > 100 µM (inactive) | > 100 µM (inactive) | > 100 µM (inactive) | > 100 µM (inactive) | > 100 µM (inactive) | > 100 µM (inactive) | > 100 µM (inactive)
COc1c(C)c(C/C=C(\C)CCCC(C)CCCC(C)CCCC(C)C)c(OC)c2ccccc12 (stereo not drawn) | > 100 µM (inactive) | – | > 100 µM (inactive) | > 100 | > 100 µM (inactive) | > 100 µM (inactive) | > 100 µM (inactive) | > 100 µM (inactive) | – | – | > 100 µM (inactive) | > 100 µM (inactive) | > 100 µM (inactive) | > 100 µM (inactive) | > 100 µM (inactive) | > 100 µM (inactive) | > 100 µM (inactive) | > 100 µM (inactive)
Cc1cc2c(cc1C)C(=O)C1(C2)Cc2c(ccc(C)c2C)C1=O (stereo not drawn) | 89.1 µM (inactive) | – | > 100 µM (inactive) | > 100 | 42.5 µM (inactive) | > 100 µM (inactive) | > 100 µM (inactive) | > 100 µM (inactive) | 98.6 µM (inactive) | > 100 µM (inactive) | > 100 µM (inactive) | > 100 µM (inactive) | > 100 µM (inactive) | > 100 µM (inactive) | > 100 µM (inactive) | > 100 µM (inactive) | > 100 µM (inactive) | 75.5 µM (inactive)
c1ccc(/C(=N/Nc2cnccn2)c2ncccn2)cc1 | 81.3 µM (inactive) | – | 28 µM (inactive) | 50.6 | 23.1 µM (inactive) | 78.2 µM (inactive) | 68.2 µM (inactive) | > 100 µM (inactive) | – | – | 39.9 µM (inactive) | > 100 µM (inactive) | > 100 µM (inactive) | 12.9 µM (inactive) | 41.1 µM (inactive) | > 100 µM (inactive) | 88.3 µM (inactive) | 67.9 µM (inactive)
COc1cc2c(c(OC3OC(CO)C(O)C(O)C3O)c1)C(=O)CC(c1ccc(O)cc1)O2 (stereo not drawn) | > 100 µM (inactive) | > 100 µM (inactive) | > 10 µM (inactive) | > 100 | > 100 µM (inactive) | > 100 µM (inactive) | > 100 µM (inactive) | > 100 µM (inactive) | – | > 100 µM (inactive) | > 100 µM (inactive) | > 100 µM (inactive) | > 100 µM (inactive) | > 100 µM (inactive) | > 100 µM (inactive) | > 100 µM (inactive) | > 100 µM (inactive) | > 100 µM (inactive)
COc1cc(CSc2ccc(O)cc2)cc(OC)c1OC | 55.3 µM (inactive) | 93.3 µM (inactive) | > 10 µM (inactive) | 25.5 | 41.3 µM (inactive) | 36.4 µM (inactive) | 43.2 µM (inactive) | 30.5 µM (inactive) | 27.5 µM (inactive) | 29 µM (inactive) | 18 µM (inactive) | 52.5 µM (inactive) | 34.6 µM (inactive) | 24.1 µM (inactive) | > 100 µM (inactive) | 39 µM (inactive) | 27.4 µM (inactive) | –
CN1C(=O)C(CC=O)(C(C)(C)C)c2ccccc21 (stereo not drawn) | 41.8 µM (inactive) | > 100 µM (inactive) | 60 µM (inactive) | 90.6 | 56.6 µM (inactive) | > 100 µM (inactive) | > 100 µM (inactive) | 33.3 µM (inactive) | – | – | > 100 µM (inactive) | > 100 µM (inactive) | > 100 µM (inactive) | > 100 µM (inactive) | 79.6 µM (inactive) | > 100 µM (inactive) | 93.5 µM (inactive) | > 100 µM (inactive)
Cc1ccnc2nc(-c3cccc(Cl)c3)cc(O)c12 | 0.08 µM (active) | 0.234 µM (active) | 0.0553 µM (active) | 0.0407 | 0.44 µM (active) | 0.0822 µM (active) | 0.108 µM (active) | 0.0108 µM (active) | – | 3.4 µM (inactive) | 0.038 µM (active) | 0.139 µM (active) | 0.132 µM (active) | 0.0325 µM (active) | 0.0524 µM (active) | > 100 µM (inactive) | 0.0474 µM (active) | > 91.4 µM (inactive)
CC(C)(/N=N/C(C)(C)C(=N)N)C(=N)N | > 100 µM (inactive) | > 100 µM (inactive) | – | > 100 | > 100 µM (inactive) | > 100 µM (inactive) | > 100 µM (inactive) | > 100 µM (inactive) | – | > 100 µM (inactive) | > 100 µM (inactive) | > 100 µM (inactive) | > 100 µM (inactive) | > 100 µM (inactive) | > 100 µM (inactive) | > 100 µM (inactive) | > 100 µM (inactive) | > 100 µM (inactive)
